Blank lines part the entries; values can stand above or below the compound they belong to.
Experiments:
Pain and/or Inflammation = test: Tests on various subjects: cream applied to the inflamed skin area for pain and/or inflammation; type: in vivo, human; set-up: key to Pain Condition After Last Application: CD: complete disappearance of pain; RP: residual pain (i.e.: equivalent to mild pain intensity); key to Pain Intensity After Application: No pain: 0; Mild pain: +; Moderate pain: ++; Severe pain: +++ (i.e.: interference with sleep and/or day's activities)
Experimental: Compound 1, and more particularly Composition 1, was tested on several subjects so as to verify its activity as anti-inflammatory agent and/or analgesic. As it can be seen from Table 1, test subjects having various inflammations or pain have been treated with Composition 1. In each case, a small amount of Composition 1, in the form of a cream, was applied to inflammated skin area by means of a short gentle rub.
All data were provided under testimony of all volunteers.
M: male • a) Pain intensity rating: • No pain: 0 • Mild pain: + • Moderate pain: ++ • Severe pain: +++ (i.e.: interference with sleep and/or day's activities). • b) Pain condition after the last application of Compound 1. • CD: complete disappearance of pain. • RP: residual pain (i.e.: equivalent to mild pain intensity).

[1] = solubility in water of Compound 1; type: physicochemical
Description: The mass spectroscopy analysis (electrospray/scanning) using a Micromass quattra ll triple quadrupole mass spectrometer with a GC and HPLC interface, confirmed the previously illustrated formula for Compound 1. Analysis of Compound 1 was done by mass spectroscopy, positive mode, preparation of samples in 2% acetonitrile-98% methanol. […] The product observed was the following: B3C3H11O9 (223.5 g per mole). […] The purity of the obtained product was>98 % (confirmed by 500 MHz ^1H NMR analysis) and the solubility in water was at maximum 7% w/w, yielding a clear colorless solution.
An analysis of Compound 1, prepared by using metaboric acid and glycerol, was conducted under the same condition as for Compound 1 with boric acid and glycerol. […] The product observed was the following: B3C3H11O9 (223.5 g per mole). […] When compared to Compound 1 prepared from boric acid and glycerol, the purity and solubility of the obtained product were similar i.e. a purity of ≈98% with solubility in water at maximum of 7% w/w, yielding a colorless solution.

[2] = all four subjects with chronic diseases, after application

Structure (SMILES): CC(=O)Oc1ccccc1C(=O)O [Aspirin®, acetylsalicylic acid, reference compound]
gastric adverse effect that prompted discontinuation (Pain and/or Inflammation; medications taken in the past by the volunteers, testimony): severe gastric burning sensation

solubility in water ([1]; Compound 1 prepared from boric acid and glycerol, clear colorless solution): ≤ 7 % w/w
solubility in water ([1]; Compound 1 prepared from metaboric acid and glycerol, colorless solution): ≤ 7 % w/w
Structure (SMILES): OB(O)OCC(COB(O)O)OB(O)O [Compound 1]
subjects with total disappearance of pain (Pain and/or Inflammation; 30 minutes after application of the cream containing Compound 1): Four subjects out of six
complete loss of stiffness (Pain and/or Inflammation; [2]): within four four hours
reduced sensation of stiffness (Pain and/or Inflammation; [2]): within two hours
time to complete relief of the pain after the application (Pain and/or Inflammation; four subjects with chronic lower back pain, fibromyalgia or arthritis): approximately 30 minutes
pain after last application, all subjects (Pain and/or Inflammation; including three out of six who required a maximum of three applications): complete disappearance of pain for all subjects
time to relapse of pain (Pain and/or Inflammation; one out of four subjects with chronic disease, who required three applications): approximately 12 hours
pain intensity, all volunteers (Pain and/or Inflammation; six volunteers, topical cream): reduced pain intensity for all volunteers
loss of swelling at joints and of tenderness sensation (Pain and/or Inflammation; subjects with fibromyalgia and arthritis): approximately the same time-frames as reported earlier for stiffness
time to complete disappearance of pain (Pain and/or Inflammation; two subjects with an injury to a leg): within three days
effect compared with medications taken in the past for the same chronic afflictions (Pain and/or Inflammation; versus acetaminophen/Tylenol, acetaminophen-codeine/Empracet or acetylsalicylic acid/Aspirin, testimony of volunteers): higher than medications taken in the past
Pain Condition After Last Application (Pain and/or Inflammation; volunteer D-123-S, injury, leg, 3 applications): CD
Pain Intensity After Application (Pain and/or Inflammation; volunteer D-123-S, injury, leg, before application ++, 3 applications, topical cream): +
Time to Pain Relief (Pain and/or Inflammation; volunteer D-123-S, injury, leg, before application ++, topical cream): 0.5 h
Pain Condition After Last Application (Pain and/or Inflammation; volunteer D-321-J, fibromyalgia, hands, 1 application): CD*
Pain Intensity After Application (Pain and/or Inflammation; volunteer D-321-J, fibromyalgia, hands, before application +++, 1 application, topical cream): 0
Time to Pain Relief (Pain and/or Inflammation; volunteer D-321-J, fibromyalgia, hands, before application +++, topical cream): 0.5 h
Pain Condition After Last Application (Pain and/or Inflammation; volunteer D-457-D, fibromyalgia, hands & feet, 1 application): CD*
Pain Intensity After Application (Pain and/or Inflammation; volunteer D-457-D, fibromyalgia, hands & feet, before application ++, 1 application, topical cream): 0
Time to Pain Relief (Pain and/or Inflammation; volunteer D-457-D, fibromyalgia, hands & feet, before application ++, topical cream): 0.5 h
Pain Condition After Last Application (Pain and/or Inflammation; volunteer D-633-J, lower back pain, musculoskeletal, 1 application): CD*
Time to Pain Relief (Pain and/or Inflammation; volunteer D-633-J, lower back pain, musculoskeletal, before application ++, topical cream): 0.5 h
Pain Intensity After Application (Pain and/or Inflammation; volunteer D-633-J, lower back pain, musculoskeletal, lower back, central, before application ++, 1 application, topical cream): 0
Pain Condition After Last Application (Pain and/or Inflammation; volunteer D-701, arthritis, wrists, 3 applications): CD
Time to Pain Relief (Pain and/or Inflammation; volunteer D-701, arthritis, wrists, before application ++, topical cream): 0.5 h
Pain Intensity After Application (Pain and/or Inflammation; volunteer D-942-L, injury, leg, before application +++, 3 applications, topical cream): ++
Pain Condition After Last Application (Pain and/or Inflammation; volunteer D-942-L, injury, leg, 3 applications): CD
Time to Pain Relief (Pain and/or Inflammation; volunteer D-942-L, injury, leg, before application +++, topical cream): 8.0 h

From patent US20070093673A1, “Boron-containing compounds, uses and preparation thereof” (priority 2005, published 2007)
